Reference: publication PMC5433425 (PeerJ, 2017)

Tests used:
E. coli AG100A = assay: microbe, parasite or virus in culture; format: cell-based, Escherichia coli
E. coli AG100 = assay: EtBr accumulation by real-time fluorometry; details: EtBr 1 µg/ml + inhibitor 80 µM
E. coli AG100tet = assay: EtBr efflux by real-time fluorometry; details: 80 µM
Method: Control tubes with only cells and cells with and without 0.4% glucose were included. The fluorescence was measured in a Rotor-Gene 3000 and the data was acquired every 30 s for 30 min at 37 °C. The efflux activity was quantified by comparing the fluorescence data obtained under conditions that promote efflux (presence of glucose and absence of efflux inhibitor) with the data from the control in which the bacteria are under conditions of no efflux (presence of an inhibitor and no energy source).

CCCOc1ccc(-c2cc(OCCN3CCNCC3)c3ccccc3n2)cc1 [PQQ4R, 4-(2-(piperazin-1-yl)ethoxy)-2-(4-propoxyphenyl) quinolone]
MIC of EtBr in presence of the efflux inhibitor (E. coli AG100A; AG100A, inhibitor 40 μM): 0.39 µg/mL
MIC of OFX in presence of the efflux inhibitor (E. coli AG100A; AG100A, inhibitor 40 μM): 0.03 µg/mL
MIC of OXA in presence of the efflux inhibitor (E. coli AG100A; AG100A, inhibitor 40 μM): 1 µg/mL
MIC of TET in presence of the efflux inhibitor (E. coli AG100A; AG100A, inhibitor 40 μM): 0.25 µg/mL
effect on the MIC of the antibiotics (E. coli AG100A; AG100A, inhibitor 40 μM): no effect
reduction in EtBr MIC (E. coli AG100A; AG100A, inhibitor 40 μM): ≈ 8 fold
growth of AG100A in presence of the inhibitor (E. coli AG100A; concentrations above 40 µM): did not grow
EtBr fluorescence (E. coli AG100; cycle 1): 8.891
EtBr fluorescence (E. coli AG100; cycle 2): 15.958
EtBr fluorescence (E. coli AG100; cycle 3): 24.4435
EtBr fluorescence (E. coli AG100; cycle 4): 32.9586
EtBr fluorescence (E. coli AG100; cycle 5): 42.0049
EtBr fluorescence (E. coli AG100; cycle 6): 50.7014
EtBr fluorescence (E. coli AG100; cycle 7): 59.8624
EtBr fluorescence (E. coli AG100; cycle 8): 68.0874
EtBr fluorescence (E. coli AG100; cycle 9): 75.8019
EtBr fluorescence (E. coli AG100; cycle 10): 82.5362
EtBr fluorescence (E. coli AG100; cycle 11): 89.2
EtBr fluorescence (E. coli AG100; cycle 12): 95.2197
EtBr fluorescence (E. coli AG100; cycle 13): 100
EtBr fluorescence (E. coli AG100; cycle 14): 100
EtBr fluorescence (E. coli AG100; cycle 15): 100
EtBr fluorescence (E. coli AG100; cycle 16): 100
EtBr fluorescence (E. coli AG100; cycle 17): 100
EtBr fluorescence (E. coli AG100; cycle 18): 100
EtBr fluorescence (E. coli AG100; cycle 19): 100
EtBr fluorescence (E. coli AG100; cycle 20): 100
EtBr fluorescence (E. coli AG100; cycle 21): 100
EtBr fluorescence (E. coli AG100; cycle 22): 100
EtBr fluorescence (E. coli AG100; cycle 23): 100
EtBr fluorescence (E. coli AG100; cycle 24): 100
EtBr fluorescence (E. coli AG100; cycle 25): 100
EtBr fluorescence (E. coli AG100; cycle 26): 100
EtBr fluorescence (E. coli AG100; cycle 27): 100
EtBr fluorescence (E. coli AG100; cycle 28): 100
EtBr fluorescence (E. coli AG100; cycle 29): 100
EtBr fluorescence (E. coli AG100; cycle 30): 100
Fluorescence raw data, Channel Cycling A.530/585hp (E. coli AG100tet; cycle 1, + glucose): 3.509
Fluorescence raw data, Channel Cycling A.530/585hp (E. coli AG100tet; cycle 1, without glucose): 3.29
Fluorescence raw data, Channel Cycling A.530/585hp (E. coli AG100tet; cycle 2, + glucose): 3.253
Fluorescence raw data, Channel Cycling A.530/585hp (E. coli AG100tet; cycle 2, without glucose): 3.046
Fluorescence raw data, Channel Cycling A.530/585hp (E. coli AG100tet; cycle 3, + glucose): 3.181
Fluorescence raw data, Channel Cycling A.530/585hp (E. coli AG100tet; cycle 3, without glucose): 3.057
Fluorescence raw data, Channel Cycling A.530/585hp (E. coli AG100tet; cycle 4, without glucose): 3.005
Fluorescence raw data, Channel Cycling A.530/585hp (E. coli AG100tet; cycle 5, without glucose): 2.971
Fluorescence raw data, Channel Cycling A.530/585hp (E. coli AG100tet; cycle 6, without glucose): 3.106
Fluorescence raw data, Channel Cycling A.530/585hp (E. coli AG100tet; cycle 7, without glucose): 3.154
Fluorescence raw data, Channel Cycling A.530/585hp (E. coli AG100tet; cycle 8, without glucose): 3.202
Fluorescence raw data, Channel Cycling A.530/585hp (E. coli AG100tet; cycle 9, + glucose): 3.419
Fluorescence raw data, Channel Cycling A.530/585hp (E. coli AG100tet; cycle 9, without glucose): 3.159
Fluorescence raw data, Channel Cycling A.530/585hp (E. coli AG100tet; cycle 10, + glucose): 3.524
Fluorescence raw data, Channel Cycling A.530/585hp (E. coli AG100tet; cycle 10, without glucose): 3.043
Fluorescence raw data, Channel Cycling A.530/585hp (E. coli AG100tet; cycle 11, + glucose): 3.644
Fluorescence raw data, Channel Cycling A.530/585hp (E. coli AG100tet; cycle 11, without glucose): 3.142
Fluorescence raw data, Channel Cycling A.530/585hp (E. coli AG100tet; cycle 12, + glucose): 3.857
Fluorescence raw data, Channel Cycling A.530/585hp (E. coli AG100tet; cycle 12, without glucose): 3.158
Fluorescence raw data, Channel Cycling A.530/585hp (E. coli AG100tet; cycle 13, + glucose): 3.873
Fluorescence raw data, Channel Cycling A.530/585hp (E. coli AG100tet; cycle 13, without glucose): 3.143
Fluorescence raw data, Channel Cycling A.530/585hp (E. coli AG100tet; cycle 14, + glucose): 3.954
Fluorescence raw data, Channel Cycling A.530/585hp (E. coli AG100tet; cycle 14, without glucose): 3.212
Fluorescence raw data, Channel Cycling A.530/585hp (E. coli AG100tet; cycle 15, + glucose): 4.044
Fluorescence raw data, Channel Cycling A.530/585hp (E. coli AG100tet; cycle 15, without glucose): 3.129
Fluorescence raw data, Channel Cycling A.530/585hp (E. coli AG100tet; cycle 16, + glucose): 4.17
Fluorescence raw data, Channel Cycling A.530/585hp (E. coli AG100tet; cycle 16, without glucose): 3.186
Fluorescence raw data, Channel Cycling A.530/585hp (E. coli AG100tet; cycle 17, + glucose): 4.316
Fluorescence raw data, Channel Cycling A.530/585hp (E. coli AG100tet; cycle 17, without glucose): 3.1931
Fluorescence raw data, Channel Cycling A.530/585hp (E. coli AG100tet; cycle 18, + glucose): 4.457
Fluorescence raw data, Channel Cycling A.530/585hp (E. coli AG100tet; cycle 18, without glucose): 3.175
Fluorescence raw data, Channel Cycling A.530/585hp (E. coli AG100tet; cycle 19, + glucose): 4.5
Fluorescence raw data, Channel Cycling A.530/585hp (E. coli AG100tet; cycle 19, without glucose): 3.177
Fluorescence raw data, Channel Cycling A.530/585hp (E. coli AG100tet; cycle 20, + glucose): 4.55
Fluorescence raw data, Channel Cycling A.530/585hp (E. coli AG100tet; cycle 20, without glucose): 3.2463
Fluorescence raw data, Channel Cycling A.530/585hp (E. coli AG100tet; cycle 21, + glucose): 4.567
Fluorescence raw data, Channel Cycling A.530/585hp (E. coli AG100tet; cycle 21, without glucose): 3.257
Fluorescence raw data, Channel Cycling A.530/585hp (E. coli AG100tet; cycle 22, + glucose): 4.692
Fluorescence raw data, Channel Cycling A.530/585hp (E. coli AG100tet; cycle 22, without glucose): 3.214
Fluorescence raw data, Channel Cycling A.530/585hp (E. coli AG100tet; cycle 23, + glucose): 4.73
Fluorescence raw data, Channel Cycling A.530/585hp (E. coli AG100tet; cycle 23, without glucose): 3.261
Fluorescence raw data, Channel Cycling A.530/585hp (E. coli AG100tet; cycle 24, + glucose): 4.823
Fluorescence raw data, Channel Cycling A.530/585hp (E. coli AG100tet; cycle 24, without glucose): 3.277
Fluorescence raw data, Channel Cycling A.530/585hp (E. coli AG100tet; cycle 25, + glucose): 4.864
Fluorescence raw data, Channel Cycling A.530/585hp (E. coli AG100tet; cycle 25, without glucose): 3.306
Fluorescence raw data, Channel Cycling A.530/585hp (E. coli AG100tet; cycle 26, + glucose): 4.922
Fluorescence raw data, Channel Cycling A.530/585hp (E. coli AG100tet; cycle 26, without glucose): 3.351
Fluorescence raw data, Channel Cycling A.530/585hp (E. coli AG100tet; cycle 27, + glucose): 4.884
Fluorescence raw data, Channel Cycling A.530/585hp (E. coli AG100tet; cycle 27, without glucose): 3.344
Fluorescence raw data, Channel Cycling A.530/585hp (E. coli AG100tet; cycle 28, + glucose): 5.012
Fluorescence raw data, Channel Cycling A.530/585hp (E. coli AG100tet; cycle 28, without glucose): 3.341
Fluorescence raw data, Channel Cycling A.530/585hp (E. coli AG100tet; cycle 29, + glucose): 5.042
Fluorescence raw data, Channel Cycling A.530/585hp (E. coli AG100tet; cycle 29, without glucose): 3.312
Fluorescence raw data, Channel Cycling A.530/585hp (E. coli AG100tet; cycle 30, + glucose): 5.087
Fluorescence raw data, Channel Cycling A.530/585hp (E. coli AG100tet; cycle 30, without glucose): 3.355
Fluorescence raw data, Channel Cycling A.530/585hp (E. coli AG100tet; cycle 31, + glucose): 5.094
Fluorescence raw data, Channel Cycling A.530/585hp (E. coli AG100tet; cycle 31, without glucose): 3.321
Fluorescence raw data, Channel Cycling A.530/585hp (E. coli AG100tet; cycle 32, + glucose): 5.074
Fluorescence raw data, Channel Cycling A.530/585hp (E. coli AG100tet; cycle 32, without glucose): 3.301
Fluorescence raw data, Channel Cycling A.530/585hp (E. coli AG100tet; cycle 33, + glucose): 5.085
Fluorescence raw data, Channel Cycling A.530/585hp (E. coli AG100tet; cycle 33, without glucose): 3.3487
Fluorescence raw data, Channel Cycling A.530/585hp (E. coli AG100tet; cycle 34, + glucose): 5.136
Fluorescence raw data, Channel Cycling A.530/585hp (E. coli AG100tet; cycle 34, without glucose): 3.377
Fluorescence raw data, Channel Cycling A.530/585hp (E. coli AG100tet; cycle 35, + glucose): 5.101
Fluorescence raw data, Channel Cycling A.530/585hp (E. coli AG100tet; cycle 35, without glucose): 3.39
Fluorescence raw data, Channel Cycling A.530/585hp (E. coli AG100tet; cycle 36, + glucose): 5.167
Fluorescence raw data, Channel Cycling A.530/585hp (E. coli AG100tet; cycle 36, without glucose): 3.3989
Fluorescence raw data, Channel Cycling A.530/585hp (E. coli AG100tet; cycle 37, + glucose): 5.0249
Fluorescence raw data, Channel Cycling A.530/585hp (E. coli AG100tet; cycle 37, without glucose): 3.336
Fluorescence raw data, Channel Cycling A.530/585hp (E. coli AG100tet; cycle 38, + glucose): 5.139
Fluorescence raw data, Channel Cycling A.530/585hp (E. coli AG100tet; cycle 38, without glucose): 3.322
Fluorescence raw data, Channel Cycling A.530/585hp (E. coli AG100tet; cycle 39, + glucose): 5.07
Fluorescence raw data, Channel Cycling A.530/585hp (E. coli AG100tet; cycle 39, without glucose): 3.367
Fluorescence raw data, Channel Cycling A.530/585hp (E. coli AG100tet; cycle 40, + glucose): 5.071
Fluorescence raw data, Channel Cycling A.530/585hp (E. coli AG100tet; cycle 40, without glucose): 3.292
Fluorescence raw data, Channel Cycling A.530/585hp (E. coli AG100tet; cycle 41, + glucose): 5.036
Fluorescence raw data, Channel Cycling A.530/585hp (E. coli AG100tet; cycle 41, without glucose): 3.413
Fluorescence raw data, Channel Cycling A.530/585hp (E. coli AG100tet; cycle 42, + glucose): 4.946
Fluorescence raw data, Channel Cycling A.530/585hp (E. coli AG100tet; cycle 42, without glucose): 3.2813
Fluorescence raw data, Channel Cycling A.530/585hp (E. coli AG100tet; cycle 43, + glucose): 5.023
Fluorescence raw data, Channel Cycling A.530/585hp (E. coli AG100tet; cycle 43, without glucose): 3.329
Fluorescence raw data, Channel Cycling A.530/585hp (E. coli AG100tet; cycle 44, + glucose): 4.8625
Fluorescence raw data, Channel Cycling A.530/585hp (E. coli AG100tet; cycle 44, without glucose): 3.331
Fluorescence raw data, Channel Cycling A.530/585hp (E. coli AG100tet; cycle 45, without glucose): 3.333
Fluorescence raw data, Channel Cycling A.530/585hp (E. coli AG100tet; cycle 46, without glucose): 3.356
Fluorescence raw data, Channel Cycling A.530/585hp (E. coli AG100tet; cycle 47, without glucose): 3.3344
Fluorescence raw data, Channel Cycling A.530/585hp (E. coli AG100tet; cycle 48, without glucose): 3.246
Fluorescence raw data, Channel Cycling A.530/585hp (E. coli AG100tet; cycle 49, without glucose): 3.317
Fluorescence raw data, Channel Cycling A.530/585hp (E. coli AG100tet; cycle 50, without glucose): 3.306
Fluorescence raw data, Channel Cycling A.530/585hp (E. coli AG100tet; cycle 51, without glucose): 3.275
Fluorescence raw data, Channel Cycling A.530/585hp (E. coli AG100tet; cycle 52, without glucose): 3.293
Fluorescence raw data, Channel Cycling A.530/585hp (E. coli AG100tet; cycle 53, without glucose): 3.359
Fluorescence raw data, Channel Cycling A.530/585hp (E. coli AG100tet; cycle 54, without glucose): 3.295
Fluorescence raw data, Channel Cycling A.530/585hp (E. coli AG100tet; cycle 55, without glucose): 3.253
Fluorescence raw data, Channel Cycling A.530/585hp (E. coli AG100tet; cycle 56, without glucose): 3.229
Fluorescence raw data, Channel Cycling A.530/585hp (E. coli AG100tet; cycle 57, without glucose): 3.179
Fluorescence raw data, Channel Cycling A.530/585hp (E. coli AG100tet; cycle 58, without glucose): 3.169
Fluorescence raw data, Channel Cycling A.530/585hp (E. coli AG100tet; cycle 59, without glucose): 3.145
Fluorescence raw data, Channel Cycling A.530/585hp (E. coli AG100tet; cycle 60, without glucose): 3.211
Fluorescence raw data, Channel Cycling A.530/585hp (E. coli AG100tet; cycle 61, without glucose): 3.105
